# PMC11337205, “Unraveling Interspecies Differences in the Phase I Hepatic Metabolism of Alternariol and Alternariol Monomethyl Ether: Closing Data Gaps for a Comprehensive Risk Assessment” (Chemical Research in Toxicology, 2024)
# How the values were obtained:
# [1] = Phase I metabolism kinetics (parent toxin loss) in NADPH-fortified porcine liver microsomes, LC-MS/MS; format: in vitro ADME, pig; conditions: for microsomal CLint: Large White, pH 7.4, porcine LMs, read-out: CLint (intrinsic clearance)
# Description: (§1) Pooled human LMs and pooled Sprague–Dawley rat hepatic microsomes, both originating from male donors, were purchased from Sigma-Aldrich (St. Louis, MO, USA) and Gibco, Thermo Fisher Scientific (Waltham, MA, USA), respectively. Porcine LMs were prepared according to an in-house-developed protocol based on the publication of Knights et al.[32] The liver of an approximately four-month-old female “Large White” (or “German Edelschwein”) pig was obtained from a local slaughterhouse. After slaughtering, the liver was placed on ice for about an hour, kept in ice-cold 50 mM tris(hydroxymethyl)aminomethane hydrochloride (Tris–HCl) (pH 7.4) for an additional hour while being transported, and processed immediately.
# (§2) The kinetics of the phase I metabolism of AOH and AME was investigated by incubating human, rat (both 1 mg protein/mL), and porcine LMs (2 mg protein/mL) with 1, 10, 20, 50, and 100 μM AOH or 1, 10, 20, and 50 μM AME based on the protocol by Al-Subeihi et al.[34] The incubation solution contained a final concentration of 3 mM NADPH and 1 mM ascorbic acid in 200 mM Tris–HCl (pH 7.4). After preincubation (37 °C, 1 min, mixing at 250–300 rpm), the toxin stock was added in a 1:100 dilution, resulting in a total DMSO content of 1% and the desired toxin concentration. DMSO was selected for this assay because it is the least inhibitory of the solvents studied by Busby et al. on CYP1A1,[35] the primary enzyme involved in the hydroxylation of AOH and AME.[26] The well-established solubility of the test compounds in DMSO and DMSO-containing aqueous buffers facilitated laboratory work and ensured consistency with existing literature, thereby improving the comparability of results across studies, including those of Pfeiffer and colleagues.[25] In a preliminary investigation, incubation times of 5 and 10 min were chosen because they fall within the linear range of the transformation rate–time relationship, thereby ensuring initial rate conditions (Figure S1). When the selected incubation time (0–10 min) passed, one part of the sample was pipetted into two parts of ice-cold extraction solvent (acetonitrile–methanol, 1:1, v/v) for reaction termination. Subsequently, the samples were placed into the freezer (−20 °C) for at least an hour, centrifuged (15 min, 18,000g, 4 °C), and further diluted in methanol–water (3:7, v/v) prior to LC–MS measurements. In the solvent control, the toxin was substituted with DMSO in the incubation solution. Control incubations were performed without the cofactor NADPH or with heat-inactivated microsomes (98 °C, 10 min, mixing at 300 rpm).
# (§3) The quantification of selected analytes using external calibration (MS parameters listed in Supporting Information Table S1) was conducted on a high-performance liquid chromatographic system (Dionex UltiMate 3000 UHPLC, Dionex Softron GmbH, Germering, Germany) coupled to a triple quadrupole mass spectrometer (TSQ Vantage, Thermo Fisher Scientific, Waltham, MA, USA), equipped with a heated electrospray ionization (ESI) interface. The applied analytical method is based on Puntscher et al.[28],[36] with slight modifications, which are specified below.
# (§4) In brief, the Ascentis Express C18 column (10 cm × 2.1 mm, 2.7 μm, Supelco, Munich, DE), equipped with the Phenomenex SecurityGuard (C18 Cartridges, 4 × 2.0 mm ID, Phenomenex Ltd. Deutschland, Aschaffenburg, Germany), served as the stationary phase. Eluent A was aqueous ammonium acetate (5 mM, pH adjusted to 8.6 with a 25% ammonia solution), and eluent B was methanol. During the first minute, the column was kept at 30% eluent B. Subsequently, the eluent B content was linearly raised to 100% within 6 min. Thereafter, the column was washed with 100% eluent B for 1.5 min. Lastly, the column was re-equilibrated at the initial conditions, reaching an overall run time of 10 min. The autosampler compartment was kept at 10 °C, while the column oven temperature was maintained at 30 °C. […]
# [2] = Phase I metabolism kinetics (parent toxin loss) in NADPH-fortified rat liver microsomes, LC-MS/MS; format: in vitro ADME, Sprague–Dawley rat; conditions: for microsomal CLint: Sprague-Dawley, rat, pH 7.4, rat LMs, read-out: CLint (intrinsic clearance)
# Description: as §1, §2, §3, §4
# [3] = Pattern of oxidative metabolites in porcine LMs by HR-MS; format: in vitro ADME, pig; conditions: porcine LMs incubated with AME
# Description: as §2
# Pooled high-resolution MS (HR-MS) samples were analyzed on a Vanquish UHPLC system (Thermo Fisher Scientific, Waltham, MA, USA) connected to a dual-pressure linear trap-quadrupole Orbitrap mass analyzer (Velos ETD, Thermo Fisher Scientific, Waltham, MA, USA). The heated ESI interface (source heater temperature: 400 °C) was operated in both positive and negative modes. The mobile and stationary phases were the same as those for the targeted analysis. The column compartment temperature was kept at 40 °C. A multistep gradient was applied at a flow rate of 0.4 mL/min and started with rinsing the column for 1 min at 10% eluent B. Then, the organic content was linearly raised to 100% until the 11th minute. Subsequently, the column was purged with 100% eluent B for two additional minutes. Finally, the initial eluent composition was reset between minutes 13 and 13.5, followed by a 2 min re-equilibration under these conditions, resulting in a total run time of 15.5 min. Data acquisition and evaluation were performed with the software Skyline (v. 21.1.0.146, MacCoss Lab, Department of Genome Sciences, University of Washington, Seattle, WA, USA), XCalibur (v. 2.2SP1.48), and Chromeleon (v. 7.2.6.; both Thermo Fisher Scientific, Waltham, MA, USA).
# As no analytical standards are currently available for the hydroxy (OH) metabolites of AOH and AME, an Alternaria reference mixture containing 4-OH-AOH and 4-OH-AME was used to enable associating peaks with their respective phase I metabolites.
# [4] = Pattern of oxidative metabolites in human LMs by HR-MS; format: in vitro ADME; conditions: human LMs incubated with AME
# Description: as §2
# Pooled high-resolution MS (HR-MS) samples were analyzed on a Vanquish UHPLC system (Thermo Fisher Scientific, Waltham, MA, USA) connected to a dual-pressure linear trap-quadrupole Orbitrap mass analyzer (Velos ETD, Thermo Fisher Scientific, Waltham, MA, USA). The heated ESI interface (source heater temperature: 400 °C) was operated in both positive and negative modes. The mobile and stationary phases were the same as those for the targeted analysis. The column compartment temperature was kept at 40 °C. A multistep gradient was applied at a flow rate of 0.4 mL/min and started with rinsing the column for 1 min at 10% eluent B. Then, the organic content was linearly raised to 100% until the 11th minute. Subsequently, the column was purged with 100% eluent B for two additional minutes. […]
# [5] = oral exposure, radiolabeled AOH, male NMRI mice; cited from earlier work
# [6] = Caco-2 cell monolayers; cited from earlier work
smiles,measurement,setting,value
"Cc1cc(O)cc2oc(=O)c3c(O)cc(O)cc3c12 [AOH, alternariol]",Km,"[1]; female, Large White (German Edelschwein), pig, liver microsomes, pH 7.4, porcine LMs 2 mg protein/mL, NADPH, within 10 min, Michaelis–Menten model, read-out: Km (Michaelis constant)",672 µM
same,microsomal CLint,"[1]; female, pig, liver microsomes, Michaelis–Menten model, ratio Vmax/Km",8.52 µL/min/mg
same,microsomal CLint,"[1]; female, pig, liver microsomes, linear regression, lower concentration range",6.56 µL/min/mg
same,Concentration decrease,"[1]; porcine LMs, 1 µM toxin, 5 min",20%
same,Concentration decrease,"[1]; porcine LMs, 1 µM toxin, 10 min",47%
same,Concentration decrease,"[1]; porcine LMs, 10 µM toxin, 5 min",6%
same,Concentration decrease,"[1]; porcine LMs, 10 µM toxin, 10 min",16%
same,Concentration decrease,"[1]; porcine LMs, 20 µM toxin, 5 min",2%
same,Concentration decrease,"[1]; porcine LMs, 20 µM toxin, 10 min",15%
same,Concentration decrease,"[1]; porcine LMs, 50 µM toxin, 5 min",11%
same,Concentration decrease,"[1]; porcine LMs, 50 µM toxin, 10 min",14%
same,Concentration decrease,"[1]; porcine LMs, 100 µM toxin, 5 min",12%
same,Concentration decrease,"[1]; porcine LMs, 100 µM toxin, 10 min",14%
same,Vmax (maximum transformation rate),"[1]; porcine LMs, within 10 min, Michaelis–Menten model",5730 pmol/mg/min
same,microsomal CLint,"[2]; male, liver microsomes, Michaelis–Menten model, ratio Vmax/Km",35.9 µL/min/mg
same,microsomal CLint,"[2]; male, liver microsomes, linear regression, lower concentration range",29.9 µL/min/mg
same,Km,"[2]; male, Sprague–Dawley, liver microsomes, pH 7.4, rat LMs 1 mg protein/mL, NADPH, within 10 min, Michaelis–Menten model, read-out: Km (Michaelis constant)",78.7 µM
same,Concentration decrease,"[2]; rat LMs, 1 µM toxin, 5 min",11%
same,Concentration decrease,"[2]; rat LMs, 1 µM toxin, 10 min",19%
same,Concentration decrease,"[2]; rat LMs, 10 µM toxin, 5 min",13%
same,Concentration decrease,"[2]; rat LMs, 10 µM toxin, 10 min",27%
same,Concentration decrease,"[2]; rat LMs, 20 µM toxin, 5 min",14%
same,Concentration decrease,"[2]; rat LMs, 20 µM toxin, 10 min",28%
same,Concentration decrease,"[2]; rat LMs, 50 µM toxin, 5 min",6%
same,Concentration decrease,"[2]; rat LMs, 50 µM toxin, 10 min",9%
same,Concentration decrease,"[2]; rat LMs, 100 µM toxin, 5 min",5%
same,Concentration decrease,"[2]; rat LMs, 100 µM toxin, 10 min",12%
same,Vmax (maximum transformation rate),"[2]; rat LMs, within 10 min, Michaelis–Menten model",2830 pmol/mg/min
same,relative abundance among phase I metabolites (in words),[3],one of the main metabolites
same,relative abundance among phase I metabolites (in words),[4],small amounts
same,bioavailability,[5],less than 10%
same,intestinal absorption,[6],limited intestinal absorption
